Laboratory results reported in patent US5439927A, “Imidazoyl-β-oxo-β-benzenepropanethiomide derivative, compositions and method of use thereof” (Mitsubishi Kasei Corporation, priority 1991, dated 1995).

Assays:
[1] = tested on: spontaneous hypertensive rats (OKAMOTO-AOKI strain); test: Blood pressure lowering in spontaneous hypertensive rats after oral administration (Test Example 2); type: in vivo; conditions: 2 hours after the dosing, direct method
Description: At a dose of 3 mg/kg or 10 mg/kg, the compound of the present invention was orally administered to spontaneous hypertensive rats (OKAMOTO-AOKI strain) with an average blood pressure of 150 mmHg or more. According to the direct method described by Nakano H. and Takayanagi K., Japanese Journal of Pharmacology, Vol. 25, 25 (1975), blood pressure and cardiac output were measured. Using the compound A used in the Test Example 1 as control, the same test was done.

[2] = tested on: aorta thoracica of a Wistar rat; test: Suppression of 20 mM K shrinkage (contraction) of rat aorta thoracica (Test Example 1); conditions: Klebs-Heneleit solution, 37° C., 20 mMK, read-out: Rat aorta IC30 20 mMK (dose of a drug suppressing 30% of 20 mMK shrinkage)
Description: The aorta thoracica of a Wistar rat was resected and then suspended in a Klebs-Heneleit solution kept at 37° C., according to the Weir and Weston's method (Br. J. Pharmac., 88, 121, (1986)), to determine the dose (IC30 20 mMK) of a drug suppressing 30% of 20 mMK shrinkage. As control, the same test done about the known compound A described in Bull. Soc. Chem. Fr., 1975, 829.

Row | SMILES | Mean blood pressure: Blood pressure decrease ([1]; 10 mg/kg) | IC30 [2] | Mean blood pressure: Blood pressure decrease ([1]; 3 mg/kg)
1 | CNC(=S)C(C)(C)C(=O)c1ccc(C#N)cc1 [Compound 224] | 38.8 mmHg | 5 µM | –
2 | CNC(=S)C(C)(C)C(=O)c1ccc(-n2ccnc2)cc1 [Compound 226] | 35.9 mmHg | 13 µM | –
3 | CNC(=S)C(C)(C)C(=O)c1cccc(-n2ccnc2)c1 [Compound 265] | – | 0.62 µM | 76.5 mmHg
4 | CNC(=S)C(C)(C)C(=O)c1ccccc1-n1ccnc1 [Compound 302] | 51.9 mmHg | – | –
5 | CNC(=S)C1(C(=O)c2ccc(-n3ccnc3)cc2)CC1 [Compound 342] | 31.2 mmHg | – | –
6 | CNC(=S)C1(C(=O)c2ccc(-n3ccnc3)cc2)CCC1 [Compound 356, 4-(1-imidazolyl)-N-methyl-β-oxo-α,α-trimethylenebenzenepropanethioamide] | 58.9 mmHg | 2.1 µM | –
7 | CNC(=S)C1(C(=O)c2ccc(-n3ccnc3C)cc2)CCC1 [Compound 357] | 78.4 mmHg | 0.18 µM | –
8 | CNC(=S)C(C)(C)C(=O)c1ccccc1 [Compound A, N, α, α-trimethyl-β-oxobenzenepropanethioamide, reference compound] | 14.1 mmHg | 13.6 µM | –
